Assay results reported in EP3338554A1, “COMPOSITION AND METHOD FOR PREVENTING DEPOSIT FORMATION IN A DRIP IRRIGATION SYSTEM” (Evonik Degussa GmbH, priority 2016, dated 2018).

Assay: Calcium sulfate precipitation test of NACE standard TM0374-2007 (scale inhibition efficiency)
Protocol: The efficiency for preventing the precipitation of calcium sulfate from aqueous solution was determined with the calcium sulfate precipitation test of NACE standard TM0374-2007. A composition prepared as in example 1 was added in amounts providing the concentrations of hydrogen peroxide and HEDP in the test brine given in table 4. The hydrogen peroxide and the HEDP used for making the composition were tested for comparison.

Structure (SMILES) | % inhibition in calcium sulfate precipitation test (HEDP 1 ppm alone) [%] | % inhibition in calcium sulfate precipitation test (HEDP 5 ppm alone) [%] | % inhibition in calcium sulfate precipitation test (HEDP 10 ppm alone) [%] | % inhibition in calcium sulfate precipitation test (hydrogen peroxide 10 ppm alone) [%] | % inhibition in calcium sulfate precipitation test (hydrogen peroxide 50 ppm alone) [%] | % inhibition in calcium sulfate precipitation test (hydrogen peroxide 100 ppm alone) [%]
CC(O)(P(=O)(O)O)P(=O)(O)O [HEDP, 1-hydroxyethylidene-1,1-diphosphonic acid] | 39 | 77 | 74 | – | – | –
OO [Hydrogen peroxide, hydrogen peroxide] | – | – | – | -8 | -9 | -9
